{"source": "the supplement of paper PMC10307832", "experiment_in_all_cases": "relative viability (nuclei count vs DMSO), 5 days (fraction); higher = more cells survive", "key": {"BEN": {"tested_on": "BEN", "method_in_brief": "(§1)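 Lung cancer cell lines, seeded in 1536-well plates, were treated the following day by pin tool with a single drug or with five library-drug doses (not always all listed) in √10 steps on top of a fixed anchor-drug dose. Cells were fixed and nuclei stained in one step after 5 days, and nuclei were counted. Relative viability is the nuclei count for treated wells divided by that for vehicle wells, reported as medians of duplicate plates.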"}, "EKVX": {"tested_on": "EKVX", "method_in_brief": "as §1"}, "HCC-15": {"tested_on": "HCC-15", "method_in_brief": "as §1"}, "HCC-366": {"tested_on": "HCC-366", "method_in_brief": "as §1"}, "HCC-44": {"tested_on": "HCC-44", "method_in_brief": "as §1"}, "LCLC-103H": {"tested_on": "LCLC-103H", "method_in_brief": "as §1"}, "LOU-NH91": {"tested_on": "LOU-NH91", "method_in_brief": "as §1"}, "NCI-H1355": {"tested_on": "NCI-H1355", "method_in_brief": "as §1"}, "NCI-H1395": {"tested_on": "NCI-H1395", "method_in_brief": "as §1"}, "NCI-H1437": {"tested_on": "NCI-H1437", "method_in_brief": "as §1"}, "NCI-H1650": {"tested_on": "NCI-H1650", "method_in_brief": "as §1"}, "NCI-H1651": {"tested_on": "NCI-H1651", "method_in_brief": "as §1"}, "NCI-H1734": {"tested_on": "NCI-H1734", "method_in_brief": "as §1"}, "NCI-H1755": {"tested_on": "NCI-H1755", "method_in_brief": "as §1"}, "NCI-H1975": {"tested_on": "NCI-H1975", "method_in_brief": "as §1"}, "NCI-H2023": {"tested_on": "NCI-H2023", "method_in_brief": "as §1"}, "NCI-H2085": {"tested_on": "NCI-H2085", "method_in_brief": "as §1"}, "NCI-H2342": {"tested_on": "NCI-H2342", "method_in_brief": "as §1"}, "NCI-H358": {"tested_on": "NCI-H358", "method_in_brief": "as §1"}, "NCI-H441": {"tested_on": "NCI-H441", "method_in_brief": "as §1"}, "NCI-H460": {"tested_on": "NCI-H460", "method_in_brief": "as §1"}, "NCI-H838": {"tested_on": "NCI-H838", "method_in_brief": "as §1"}}}
{"compound": "CC(C)Oc1cc(Nc2nc(N[C@@H](C)c3ccc(F)cn3)ncc2Cl)n[nH]1", "note": "[AZ23] + Nc1ncn([C@H]2C[C@H](O)[C@@H](CO)O2)c(=O)n1 [Decitabine] (partner 2 µM)", "values": [{"measurement": "relative viability", "setting": "BEN; first compound 0.01 µM", "value": 0.736}, {"measurement": "relative viability", "setting": "BEN; first compound 0.03162 µM", "value": 0.829}, {"measurement": "relative viability", "setting": "BEN; first compound 0.3162 µM", "value": 0.667}, {"measurement": "relative viability", "setting": "EKVX; first compound 0.01 µM", "value": 0.395}, {"measurement": "relative viability", "setting": "EKVX; first compound 0.03162 µM", "value": 0.365}, {"measurement": "relative viability", "setting": "EKVX; first compound 0.3162 µM", "value": 0.345}, {"measurement": "relative viability", "setting": "HCC-15; first compound 0.01 µM", "value": 0.654}, {"measurement": "relative viability", "setting": "HCC-15; first compound 0.03162 µM", "value": 0.596}, {"measurement": "relative viability", "setting": "HCC-15; first compound 0.3162 µM", "value": 0.663}, {"measurement": "relative viability", "setting": "HCC-366; first compound 0.01 µM", "value": 0.319}, {"measurement": "relative viability", "setting": "HCC-366; first compound 0.03162 µM", "value": 0.373}, {"measurement": "relative viability", "setting": "HCC-366; first compound 0.3162 µM", "value": 0.333}, {"measurement": "relative viability", "setting": "HCC-44; first compound 0.01 µM", "value": 1.03}, {"measurement": "relative viability", "setting": "HCC-44; first compound 0.03162 µM", "value": 0.973}, {"measurement": "relative viability", "setting": "HCC-44; first compound 0.3162 µM", "value": 0.979}, {"measurement": "relative viability", "setting": "LCLC-103H; first compound 0.01 µM", "value": 0.765}, {"measurement": "relative viability", "setting": "LCLC-103H; first compound 0.03162 µM", "value": 0.691}, {"measurement": "relative viability", "setting": "LCLC-103H; first compound 0.3162 µM", "value": 0.743}, {"measurement": "relative viability", "setting": "LOU-NH91; first compound 0.01 µM", "value": 0.817}, {"measurement": "relative viability", "setting": "LOU-NH91; first compound 0.03162 µM", "value": 0.888}, {"measurement": "relative viability", "setting": "LOU-NH91; first compound 0.3162 µM", "value": 0.818}, {"measurement": "relative viability", "setting": "NCI-H1355; first compound 0.01 µM", "value": 0.377}, {"measurement": "relative viability", "setting": "NCI-H1355; first compound 0.03162 µM", "value": 0.366}, {"measurement": "relative viability", "setting": "NCI-H1355; first compound 0.3162 µM", "value": 0.333}, {"measurement": "relative viability", "setting": "NCI-H1395; first compound 0.03162 µM", "value": 0.713}, {"measurement": "relative viability", "setting": "NCI-H1395; first compound 0.3162 µM", "value": 0.704}, {"measurement": "relative viability", "setting": "NCI-H1437; first compound 0.01 µM", "value": 0.57}, {"measurement": "relative viability", "setting": "NCI-H1437; first compound 0.03162 µM", "value": 0.552}, {"measurement": "relative viability", "setting": "NCI-H1437; first compound 0.3162 µM", "value": 0.56}, {"measurement": "relative viability", "setting": "NCI-H1650; first compound 0.01 µM", "value": 0.421}, {"measurement": "relative viability", "setting": "NCI-H1650; first compound 0.03162 µM", "value": 0.41}, {"measurement": "relative viability", "setting": "NCI-H1650; first compound 0.3162 µM", "value": 0.481}, {"measurement": "relative viability", "setting": "NCI-H1651; first compound 0.01 µM", "value": 0.621}, {"measurement": "relative viability", "setting": "NCI-H1651; first compound 0.03162 µM", "value": 0.644}, {"measurement": "relative viability", "setting": "NCI-H1651; first compound 0.3162 µM", "value": 0.618}, {"measurement": "relative viability", "setting": "NCI-H1734; first compound 0.01 µM", "value": 0.532}, {"measurement": "relative viability", "setting": "NCI-H1734; first compound 0.03162 µM", "value": 0.521}, {"measurement": "relative viability", "setting": "NCI-H1734; first compound 0.3162 µM", "value": 0.482}, {"measurement": "relative viability", "setting": "NCI-H1755; first compound 0.01 µM", "value": 0.844}, {"measurement": "relative viability", "setting": "NCI-H1755; first compound 0.03162 µM", "value": 0.705}, {"measurement": "relative viability", "setting": "NCI-H1755; first compound 0.3162 µM", "value": 0.697}, {"measurement": "relative viability", "setting": "NCI-H1975; first compound 0.01 µM", "value": 0.409}, {"measurement": "relative viability", "setting": "NCI-H1975; first compound 0.03162 µM", "value": 0.451}, {"measurement": "relative viability", "setting": "NCI-H1975; first compound 0.3162 µM", "value": 0.414}, {"measurement": "relative viability", "setting": "NCI-H2023; first compound 0.03162 µM", "value": 0.259}, {"measurement": "relative viability", "setting": "NCI-H2023; first compound 0.3162 µM", "value": 0.239}, {"measurement": "relative viability", "setting": "NCI-H2085; first compound 0.01 µM", "value": 0.565}, {"measurement": "relative viability", "setting": "NCI-H2085; first compound 0.03162 µM", "value": 0.539}, {"measurement": "relative viability", "setting": "NCI-H2085; first compound 0.3162 µM", "value": 0.5}, {"measurement": "relative viability", "setting": "NCI-H2342; first compound 0.01 µM", "value": 0.716}, {"measurement": "relative viability", "setting": "NCI-H2342; first compound 0.03162 µM", "value": 0.778}, {"measurement": "relative viability", "setting": "NCI-H2342; first compound 0.3162 µM", "value": 0.649}, {"measurement": "relative viability", "setting": "NCI-H358; first compound 0.01 µM", "value": 0.261}, {"measurement": "relative viability", "setting": "NCI-H358; first compound 0.03162 µM", "value": 0.214}, {"measurement": "relative viability", "setting": "NCI-H358; first compound 0.3162 µM", "value": 0.179}, {"measurement": "relative viability", "setting": "NCI-H441; first compound 0.01 µM", "value": 0.294}, {"measurement": "relative viability", "setting": "NCI-H441; first compound 0.03162 µM", "value": 0.248}, {"measurement": "relative viability", "setting": "NCI-H441; first compound 0.3162 µM", "value": 0.239}, {"measurement": "relative viability", "setting": "NCI-H460; first compound 0.01 µM", "value": 0.489}, {"measurement": "relative viability", "setting": "NCI-H460; first compound 0.03162 µM", "value": 0.514}, {"measurement": "relative viability", "setting": "NCI-H460; first compound 0.3162 µM", "value": 0.55}, {"measurement": "relative viability", "setting": "NCI-H838; first compound 0.01 µM", "value": 0.487}, {"measurement": "relative viability", "setting": "NCI-H838; first compound 0.03162 µM", "value": 0.506}, {"measurement": "relative viability", "setting": "NCI-H838; first compound 0.3162 µM", "value": 0.44}]}
